Experimental data taken from PubChem BioAssay (NCI).
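Growth conditions: 96-well plates. Treatment: test compound, 48 hours, 5 concentrations. Analysis: linear interpolation between bracketing concentrations; unreached endpoints set to highest concentration. GI50 = concentration required for 50% inhibition of growth. TGI denotes the concentration required for complete inhibition of growth.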

Tests used:
Assay in all cases: DTP human tumour cell line panel, 48 h
A498 renal = system: A498 renal
CCRF-CEM leukemia = system: CCRF-CEM leukemia
COLO 205 colon = system: COLO 205 colon
DU-145 prostate = system: DU-145 prostate
HL-60(TB) leukemia = system: HL-60(TB) leukemia
K-562 leukemia = system: K-562 leukemia
KM12 colon = system: KM12 colon
LOX IMVI melanoma = system: LOX IMVI melanoma
MDA-N = system: MDA-N
NCI-H226 lung = system: NCI-H226 lung
NCI-H23 lung = system: NCI-H23 lung
OVCAR-3 ovarian = system: OVCAR-3 ovarian
PC-3 prostate = system: PC-3 prostate
RPMI-8226 leukemia = system: RPMI-8226 leukemia
SK-OV-3 ovarian = system: SK-OV-3 ovarian
SNB-75 CNS = system: SNB-75 CNS
SW-620 colon = system: SW-620 colon
UO-31 renal = system: UO-31 renal
786-0 renal = system: 786-0 renal
A549 NSCLC = system: A549 NSCLC
CAKI-1 renal = system: CAKI-1 renal
EKVX NSCLC = system: EKVX NSCLC
HCC-2998 colon = system: HCC-2998 colon
HCT-15 colon = system: HCT-15 colon
HOP-62 NSCLC = system: HOP-62 NSCLC
HT29 colon = system: HT29 colon
IGROV1 ovarian = system: IGROV1 ovarian
M14 melanoma = system: M14 melanoma
MALME-3M melanoma = system: MALME-3M melanoma
MCF7 breast = system: MCF7 breast
MDA-MB-231 breast = system: MDA-MB-231 breast
MOLT-4 leukemia = system: MOLT-4 leukemia
OVCAR-8 ovarian = system: OVCAR-8 ovarian
RXF 393 renal = system: RXF 393 renal
SF-295 CNS = system: SF-295 CNS
SK-MEL-28 melanoma = system: SK-MEL-28 melanoma
SK-MEL-5 melanoma = system: SK-MEL-5 melanoma
SN12C renal = system: SN12C renal
SR leukemia = system: SR leukemia
T-47D breast = system: T-47D breast
TK-10 renal = system: TK-10 renal
UACC-257 melanoma = system: UACC-257 melanoma
UACC-62 melanoma = system: UACC-62 melanoma
ACHN renal = system: ACHN renal
BT-549 breast = system: BT-549 breast
HCT-116 colon = system: HCT-116 colon
HOP-92 NSCLC = system: HOP-92 NSCLC
HS 578T breast = system: HS 578T breast
MDA-MB-435 = system: MDA-MB-435
NCI-H460 lung = system: NCI-H460 lung
NCI-H522 lung = system: NCI-H522 lung
NCI/ADR-RES ovarian = system: NCI/ADR-RES ovarian
OVCAR-4 ovarian = system: OVCAR-4 ovarian
OVCAR-5 ovarian = system: OVCAR-5 ovarian
SF-268 CNS = system: SF-268 CNS
SF-539 CNS = system: SF-539 CNS
SK-MEL-2 melanoma = system: SK-MEL-2 melanoma
SNB-19 CNS = system: SNB-19 CNS
U251 CNS = system: U251 CNS

`CN(C)CCOc1ccc2[nH]c(C(=O)N3CC(CCl)c4c3cc([N+](=O)[O-])c3ccccc43)cc2c1` (stereo not given) was tested, and the TGI (A498 renal) was 24.5 µM, the TGI (CCRF-CEM leukemia) was over 100 µM and the TGI (COLO 205 colon) was over 100 µM. For the same compound, the TGI (DU-145 prostate) was 20.2 µM, the TGI (HL-60(TB) leukemia) was over 100 µM and the TGI (K-562 leukemia) was over 100 µM. It also gave a TGI (KM12 colon) of 3.2 µM, a TGI (LOX IMVI melanoma) of over 100 µM and a TGI (MDA-N) of 48.5 µM. It also gave a TGI (NCI-H226 lung) of over 100 µM, a TGI (NCI-H23 lung) of over 100 µM and a TGI (OVCAR-3 ovarian) of 3.68 µM. The TGI (PC-3 prostate) was over 100 µM, the TGI (RPMI-8226 leukemia) was over 100 µM and the TGI (SK-OV-3 ovarian) was 85.5 µM. The TGI (SNB-75 CNS) was 3.77 µM, the TGI (SW-620 colon) was over 100 µM and the TGI (UO-31 renal) was over 100 µM.

`CC(C)(Oc1ccc(C(=O)c2ccc(Cl)cc2)cc1Cl)C(=O)N1CCN(CCO)CC1` gave a TGI (786-0 renal) of over 10 µM, a TGI (A549 NSCLC) of over 10 µM and a TGI (CAKI-1 renal) of over 10 µM. It also gave a TGI (CCRF-CEM leukemia) of over 10 µM, a TGI (COLO 205 colon) of over 10 µM and a TGI (DU-145 prostate) of over 10 µM. The TGI (EKVX NSCLC) was over 10 µM, the TGI (HCC-2998 colon) was over 10 µM and the TGI (HCT-15 colon) was over 10 µM. It also gave a TGI (HL-60(TB) leukemia) of over 10 µM, a TGI (HOP-62 NSCLC) of over 10 µM and a TGI (HT29 colon) of over 10 µM. It also gave a TGI (IGROV1 ovarian) of over 10 µM, a TGI (K-562 leukemia) of over 10 µM and a TGI (KM12 colon) of over 10 µM. For the same compound, the TGI (LOX IMVI melanoma) was over 10 µM, the TGI (M14 melanoma) was over 10 µM and the TGI (MALME-3M melanoma) was over 10 µM. The TGI (MCF7 breast) was over 10 µM, the TGI (MDA-MB-231 breast) was over 10 µM and the TGI (MDA-N) was over 10 µM. The TGI (MOLT-4 leukemia) was over 10 µM, the TGI (NCI-H23 lung) was over 10 µM and the TGI (OVCAR-8 ovarian) was over 10 µM. It also gave a TGI (PC-3 prostate) of over 10 µM, a TGI (RPMI-8226 leukemia) of over 10 µM and a TGI (RXF 393 renal) of over 10 µM. For the same compound, the TGI (SF-295 CNS) was over 10 µM, the TGI (SK-MEL-28 melanoma) was over 10 µM and the TGI (SK-MEL-5 melanoma) was over 10 µM. It also gave a TGI (SK-OV-3 ovarian) of over 10 µM, a TGI (SN12C renal) of over 10 µM and a TGI (SNB-75 CNS) of over 10 µM. The TGI (SR leukemia) was over 10 µM, the TGI (SW-620 colon) was over 10 µM and the TGI (T-47D breast) was over 10 µM. The TGI (TK-10 renal) was over 10 µM, the TGI (UACC-257 melanoma) was over 10 µM and the TGI (UACC-62 melanoma) was over 10 µM.

Compound `O=C(Nc1ccc(Oc2ccc(NC(=O)Nc3ccccc3Cl)cc2)cc1)Nc1ccccc1Cl` has a GI50 (786-0 renal) of 22.6 µM, a TGI (786-0 renal) of over 69.2 µM and a GI50 (A498 renal) of 22.2 µM. For the same compound, the TGI (A498 renal) was 64.3 µM, the GI50 (A549 NSCLC) was 2.69 µM and the TGI (A549 NSCLC) was over 26.1 µM. The GI50 (ACHN renal) was over 22.2 µM, the TGI (ACHN renal) was over 100 µM and the GI50 (BT-549 breast) was 5.06 µM. For the same compound, the TGI (BT-549 breast) was 25 µM, the GI50 (CAKI-1 renal) was over 31.9 µM and the TGI (CAKI-1 renal) was over 88.2 µM. It also gave a GI50 (CCRF-CEM leukemia) of 4.72 µM, a TGI (CCRF-CEM leukemia) of 28.8 µM and a GI50 (COLO 205 colon) of 15.7 µM. It also gave a TGI (COLO 205 colon) of over 100 µM, a GI50 (DU-145 prostate) of 4.53 µM and a TGI (DU-145 prostate) of over 100 µM. For the same compound, the GI50 (EKVX NSCLC) was 16.4 µM, the TGI (EKVX NSCLC) was over 100 µM and the GI50 (HCC-2998 colon) was 8.47 µM. It also gave a TGI (HCC-2998 colon) of over 51.7 µM, a GI50 (HCT-116 colon) of 1.59 µM and a TGI (HCT-116 colon) of over 100 µM. The GI50 (HCT-15 colon) was 0.677 µM, the TGI (HCT-15 colon) was over 100 µM and the GI50 (HL-60(TB) leukemia) was 14.8 µM. For the same compound, the TGI (HL-60(TB) leukemia) was 32.4 µM, the GI50 (HOP-62 NSCLC) was 12.4 µM and the TGI (HOP-62 NSCLC) was 34.1 µM. The GI50 (HOP-92 NSCLC) was 1.34 µM, the TGI (HOP-92 NSCLC) was 9.53 µM and the GI50 (HS 578T breast) was 17.8 µM. It also gave a TGI (HS 578T breast) of over 100 µM, a GI50 (HT29 colon) of over 21.4 µM and a TGI (HT29 colon) of over 100 µM. It also gave a GI50 (IGROV1 ovarian) of 3.57 µM, a TGI (IGROV1 ovarian) of 14.8 µM and a GI50 (K-562 leukemia) of 2.63 µM. For the same compound, the TGI (K-562 leukemia) was over 40.1 µM, the GI50 (KM12 colon) was over 100 µM and the TGI (KM12 colon) was over 100 µM. For the same compound, the GI50 (LOX IMVI melanoma) was 10.8 µM, the TGI (LOX IMVI melanoma) was over 100 µM and the GI50 (M14 melanoma) was over 44.6 µM. The TGI (M14 melanoma) was over 100 µM, the GI50 (MALME-3M melanoma) was 15.4 µM and the TGI (MALME-3M melanoma) was over 96 µM. It also gave a GI50 (MCF7 breast) of 8.54 µM, a TGI (MCF7 breast) of over 100 µM and a GI50 (MDA-MB-231 breast) of 9.4 µM. For the same compound, the TGI (MDA-MB-231 breast) was 29.6 µM, the GI50 (MDA-MB-435) was over 100 µM and the TGI (MDA-MB-435) was over 100 µM. For the same compound, the GI50 (MOLT-4 leukemia) was 12.1 µM, the TGI (MOLT-4 leukemia) was 32.9 µM and the GI50 (NCI-H226 lung) was 15.6 µM. For the same compound, the TGI (NCI-H226 lung) was 49 µM, the GI50 (NCI-H23 lung) was 3.61 µM and the TGI (NCI-H23 lung) was 18.5 µM. The GI50 (NCI-H460 lung) was 2.49 µM, the TGI (NCI-H460 lung) was over 100 µM and the GI50 (NCI-H522 lung) was 7.91 µM. The TGI (NCI-H522 lung) was 42.6 µM, the GI50 (NCI/ADR-RES ovarian) was 10.8 µM and the TGI (NCI/ADR-RES ovarian) was over 63.8 µM. It also gave a GI50 (OVCAR-3 ovarian) of 11.3 µM, a TGI (OVCAR-3 ovarian) of over 55 µM and a GI50 (OVCAR-4 ovarian) of 2.71 µM. It also gave a TGI (OVCAR-4 ovarian) of 24.4 µM, a GI50 (OVCAR-5 ovarian) of 27.6 µM and a TGI (OVCAR-5 ovarian) of over 100 µM. The GI50 (OVCAR-8 ovarian) was 6.83 µM, the TGI (OVCAR-8 ovarian) was 23.6 µM and the GI50 (PC-3 prostate) was 2.11 µM. It also gave a GI50 (RPMI-8226 leukemia) of 1.19 µM, a TGI (RPMI-8226 leukemia) of 15.7 µM and a GI50 (RXF 393 renal) of 2.99 µM. For the same compound, the TGI (RXF 393 renal) was 11.4 µM, the GI50 (SF-268 CNS) was 8.11 µM and the TGI (SF-268 CNS) was 55.1 µM. It also gave a GI50 (SF-295 CNS) of 6.81 µM, a TGI (SF-295 CNS) of 33.9 µM and a GI50 (SF-539 CNS) of 6 µM. For the same compound, the TGI (SF-539 CNS) was 22.1 µM, the GI50 (SK-MEL-2 melanoma) was 8.17 µM and the TGI (SK-MEL-2 melanoma) was over 20.4 µM. For the same compound, the GI50 (SK-MEL-28 melanoma) was 3.54 µM, the TGI (SK-MEL-28 melanoma) was over 100 µM and the TGI (SK-MEL-5 melanoma) was over 100 µM. The GI50 (SK-OV-3 ovarian) was 9.33 µM, the TGI (SK-OV-3 ovarian) was 38.1 µM and the GI50 (SN12C renal) was 7.55 µM. It also gave a TGI (SN12C renal) of over 100 µM, a GI50 (SNB-19 CNS) of 17 µM and a TGI (SNB-19 CNS) of 43.8 µM. It also gave a GI50 (SNB-75 CNS) of 12.2 µM, a TGI (SNB-75 CNS) of 37.3 µM and a GI50 (SR leukemia) of 0.453 µM. The TGI (SR leukemia) was 13.3 µM, the GI50 (SW-620 colon) was 10.6 µM and the TGI (SW-620 colon) was over 100 µM. For the same compound, the GI50 (T-47D breast) was 6.98 µM, the TGI (T-47D breast) was over 90.6 µM and the GI50 (TK-10 renal) was 4.72 µM. For the same compound, the TGI (TK-10 renal) was 45.1 µM, the GI50 (U251 CNS) was 1.71 µM and the TGI (U251 CNS) was 20.5 µM. The TGI (UACC-257 melanoma) was over 28.2 µM, the GI50 (UACC-62 melanoma) was 7.42 µM and the TGI (UACC-62 melanoma) was over 62 µM. For the same compound, the GI50 (UO-31 renal) was 34.8 µM and the TGI (UO-31 renal) was over 95.8 µM.
